# Patent EP0021678B1, “1-Sulpho-2-oxoazetidine derivatives, their production and pharmaceutical compositions thereof” (Takeda Chemical Industries, Ltd., priority 1979, dated 1981)
# Read-outs that look alike come from different tables or passages of the source.
# Key:
# Experiment in all cases: Anti-bacterial test, minimum inhibitory concentration on agar
# Format in all cases: cell-based
# [1] = test system: Candida albicans TA; conditions: for MIC: read-out: Minimum inhibitory concentration
# Source text: (§1) The compound (I) thus obtained is useful as a drug, being active against certain gram-positive and gram-negative bacteria. By way of example, the compounds are active against the following micro-organisms.
# (§2) The media and compounds employed in the anti-bacterial test are as follows: • Media: • TSA = Trypticase soy agar • [Baltimore Biologicals (U.S.A.)] • B-TSA = Blood trypticase soy agar • Compounds: • Compound A = Sodium 3-[2-(2-amino-4-thiazolyl)-2-methoxyiminoacetamido]-2-oxo-azetidine-1-sulphonate • Compound B = Sodium 3-[D(-)-N-(4-ethyl-2,3-dioxo-1-piperazinocarbonyl)-phenyl-glycin- amido]-2-oxoazetidine-1-sulphonate • Compound C = Sodium 3-[D(-)-N-(4-ethyl-2,3-dioxo-1-piperazinocarbonyl)phenylglycinamido]-3-methoxy-2-oxoazetidine-1-sulphonate • Compound D = Sodium 3-[2-(4-ethyl-2,3-dioxo-1-piperazinocarboxamido)-2-(2-amino-4-thiazolyl)-acetamido]-2-oxoazetidine-1-sulphonate • Compound E = Sodium 3-[DL-2-(4-ethyl-2,3-dioxo-1-piperazinocarboxamido)-2-thienylacetamido]-2-oxoazetidine-1-sulphonate • Compound F = Sodium 3-[D-2-(4-ethyl-2,3-dioxo-1-piperazinocarboxamido)-2-thienylacetamido]-2-oxoazetidine-1-sulphonate • Compound G = Sodium 3-[D-2-(4-n-octyl-2,3-dioxo-1-piperazinocarboxamido)-2-phenylacetamido]-2-oxoazetidine-1-sulphonate • Compound H = Sodium 3-[2-(4-n-octyl-2,3-dioxo-1-piperazinocarboxamido)-2-(2-amino-4-thiazolyl)-acetamido]-2-oxoazetidine-1-sulphonate • Compound I = Sodium 3-[D-2-[(2-oxo-3-furfurylideneaminoimidazolidin-1-yl)-carboxamido]-2-phenylacetamido]-2-oxoazetidine-1-sulphonate • Compound J = Sodium 3-[2-(4-n-octyl-2,3-dioxo-1-piperazinocarboxamido)-2-thienylacetamido]-2-oxoazetidine-1-sulphonate • Compound K = Sodium 3-[D-2-[[2-oxo-3-(thiophen-2-aidoimino)-imidazolidin-1-yl]-carboxamido]-2-phenylacetamido]-2-oxoazetidine-1-sulphonate • Compound L = Sodium 3-[2-[(2-oxo-3-furfurylideneaminoimidazolidin-1-yl)-carboxamido]-2-thienylacetamido]-2-oxoazetidine-1-sulphonate
# [2] = test system: Streptococcus pyogenes E—14; conditions: for MIC: read-out: Minimum inhibitory concentration
# Source text: as §1, §2
# [3] = test system: Acinetobacter calcoaceticus IFO 13006
# Source text: as §1, §2
# [4] = test system: Enterobacter cloacae IFO 12937
# Source text: as §1, §2
# [5] = test system: Staphylococcus aureus FDA209P; conditions: for MIC: Staphylococcus aureus, FDA209P, read-out: Minimum inhibitory concentration
# Source text: as §1, §2
# [6] = test system: Streptococcus pyogenes S—8; conditions: for MIC: read-out: Minimum inhibitory concentration
# Source text: as §1, §2
# [7] = test system: Streptococcus faecium IFO 3128; conditions: for MIC: Enterococcus faecium
# Source text: as §1, §2
# [8] = test system: Staphylococcus aureus 308A—1; conditions: for MIC: read-out: Minimum inhibitory concentration
# Source text: as §1, §2
# [9] = test system: Proteus vulgaris IFO 3988
# Source text: as §1, §2
# [10] = test system: Proteus morganii IFO 3168; conditions: for MIC: Morganella morganii
# Source text: as §1, §2
# [11] = test system: Streptococcus pneumoniae Type I; conditions: for MIC: read-out: Minimum inhibitory concentration
# Source text: as §1, §2
# [12] = test system: Staphylococcus aureus 1840
# Source text: as §1, §2
# [13] = test system: Escherichia coli O—111; conditions: medium TSA
# Source text: as §1, §2
# [14] = test system: Bordetella bronchiseptica Sagami; conditions: for MIC: read-out: Minimum inhibitory concentration
# Source text: as §1, §2
# [15] = test system: Klebsiella pneumoniae DT; conditions: for MIC: read-out: Minimum inhibitory concentration
# Source text: as §1, §2
# [16] = test system: Pseudomonas aeruginosa IFO 3455
# Source text: as §1, §2
# [17] = test system: Serratia marcescens IFO 12648
# Source text: as §1, §2
# [18] = test system: Streptococcus mitis America; conditions: for MIC: read-out: Minimum inhibitory concentration
# Source text: as §1, §2
# [19] = test system: Citrobacter freundii IFO 12681
# Source text: as §1, §2
# [20] = test system: Escherichia coli T-7; conditions: for MIC: T7, medium TSA
# Source text: as §1, §2
# [21] = test system: Escherichia coli NIHJ JC—2; conditions: for MIC: read-out: Minimum inhibitory concentration
# Source text: as §1, §2
# [22] = test system: Corynebacterium diphtheriae Toronto; conditions: for MIC: read-out: Minimum inhibitory concentration
# Source text: as §1, §2
# [23] = test system: Pseudomonas aeruginosa U 31
# Source text: as §1, §2
# [24] = test system: Proteus mirabilis IFO 3849
# Source text: as §1, §2
# [25] = Candida albicans TA, medium TSA
# [26] = Streptococcus pyogenes E—14, medium B—TSA
# [27] = IFO13006, Acinetobacter calcoaceticus IFO 13006, medium TSA, read-out: Minimum inhibitory concentration
# [28] = IFO12937, Enterobacter cloacae IFO 12937, medium TSA, read-out: Minimum inhibitory concentration
# [29] = Staphylococcus aureus FDA209P, medium B—TSA
# [30] = Staphylococcus aureus FDA209P, medium TSA
# [31] = Streptococcus pyogenes S—8, medium B—TSA
# [32] = IFO3128, Streptococcus faecium IFO 3128, medium B—TSA, read-out: Minimum inhibitory concentration
# [33] = Staphylococcus aureus 308A—1, medium TSA
# [34] = IFO3988, Proteus vulgaris IFO 3988, medium TSA, read-out: Minimum inhibitory concentration
# [35] = IFO3168, Proteus morganii IFO 3168, medium TSA, read-out: Minimum inhibitory concentration
# [36] = Streptococcus pneumoniae Type I, medium B—TSA
# [37] = Staphylococcus aureus 1840, medium TSA, read-out: Minimum inhibitory concentration
# [38] = Bordetella bronchiseptica Sagami, medium B—TSA
# [39] = Klebsiella pneumoniae DT, medium TSA
# [40] = IFO3455, Pseudomonas aeruginosa IFO 3455, medium TSA, read-out: Minimum inhibitory concentration
# [41] = IFO12648, Serratia marcescens IFO 12648, medium TSA, read-out: Minimum inhibitory concentration
# [42] = Streptococcus mitis America, medium B—TSA
# [43] = IFO12681, Citrobacter freundii IFO 12681, medium TSA, read-out: Minimum inhibitory concentration
# [44] = Escherichia coli NIHJ JC—2, medium TSA
# [45] = Corynebacterium diphtheriae Toronto, medium B—TSA
# [46] = U31, Pseudomonas aeruginosa U 31, medium TSA, read-out: Minimum inhibitory concentration
# [47] = IFO3849, Proteus mirabilis IFO 3849, medium TSA, read-out: Minimum inhibitory concentration
structure (smiles),measurement,setting,value
"CCN1CCN(C(=O)N[C@@H](C(=O)NC2CN(S(=O)(=O)O)C2=O)c2ccccc2)C(=O)C1=O (single isomer, unassigned) [Compound B, Sodium 3-[D(-)-N-(4-ethyl-2,3-dioxo-1-piperazinocarbonyl)-phenyl-glycin-amido]-2-oxoazetidine-1-sulphonate]",MIC,[1]; [25],> 100 µg/mL
same,MIC,[2]; [26],3.13 µg/mL
same,MIC,[3]; [27],25 µg/mL
same,MIC,[4]; [28],50 µg/mL
same,MIC,[5]; [29],6.25 µg/mL
same,MIC,[5]; [30],6.25 µg/mL
same,MIC,[6]; [31],6.25 µg/mL
same,MIC,[7]; [32],> 100 µg/mL
same,MIC,[8]; [33],3.13 µg/mL
same,MIC,[9]; [34],0.1 µg/mL
same,MIC,[10]; [35],25 µg/mL
same,MIC,[11]; [36],6.25 µg/mL
same,MIC,[12]; [37],25 µg/mL
same,MIC,[13],0.2 µg/mL
same,MIC,[14]; [38],> 100 µg/mL
same,MIC,[15]; [39],0.2 µg/mL
same,MIC,[16]; [40],1.56 µg/mL
same,MIC,[17]; [41],3.13 µg/mL
same,MIC,[18]; [42],25 µg/mL
same,MIC,[19]; [43],6.25 µg/mL
same,MIC,[20],> 100 µg/mL
same,MIC,[21]; [44],1.56 µg/mL
same,MIC,[22]; [45],3.13 µg/mL
same,MIC,[23]; [46],> 100 µg/mL
same,MIC,[24]; [47],0.78 µg/mL
"CON=C(C(=O)NC1CN(S(=O)(=O)[O-])C1=O)c1csc(N)n1.[Na+] (stereo not shown) [Compound A, Sodium 3-[2-(2-amino-4-thiazolyl)-2-methoxyiminoacetamido]-2-oxo-azetidine-1-sulphonate]",MIC,[1]; Candida albicans,> 100 µg/mL
same,MIC,[2]; Streptococcus pyogenes,3.13 µg/mL
same,MIC,"[3]; Acinetobacter calcoaceticus, IFO13006, read-out: Minimum inhibitory concentration",6.25 µg/mL
same,MIC,"[4]; Enterobacter cloacae, IFO12937, read-out: Minimum inhibitory concentration",> 100 µg/mL
same,Minimum inhibitory concentration,[5]; [29],50 µg/mL
same,MIC,[5],50 µg/mL
same,MIC,[6]; Streptococcus pyogenes,3.13 µg/mL
same,MIC,"[7]; IFO3128, read-out: Minimum inhibitory concentration",> 100 µg/mL
same,MIC,[8]; Staphylococcus aureus,25 µg/mL
same,MIC,"[9]; Proteus vulgaris, IFO3988, read-out: Minimum inhibitory concentration",1.56 µg/mL
same,MIC,"[10]; IFO3168, read-out: Minimum inhibitory concentration",25 µg/mL
same,MIC,[11]; Streptococcus pneumoniae,12.5 µg/mL
same,MIC,"[12]; Staphylococcus aureus, 1840, read-out: Minimum inhibitory concentration",100 µg/mL
same,MIC,[13],0.39 µg/mL
same,MIC,[14]; Bordetella bronchiseptica,100 µg/mL
same,MIC,[15]; Klebsiella pneumoniae,0.78 µg/mL
same,MIC,"[16]; Pseudomonas aeruginosa, IFO3455, read-out: Minimum inhibitory concentration",6.25 µg/mL
same,MIC,"[17]; Serratia marcescens, IFO12648, read-out: Minimum inhibitory concentration",12.5 µg/mL
same,MIC,[18]; Streptococcus mitis,25 µg/mL
same,MIC,"[19]; Citrobacter freundii, IFO12681, read-out: Minimum inhibitory concentration",1.56 µg/mL
same,MIC,[20],> 100 µg/mL
same,MIC,[21]; Escherichia coli,0.78 µg/mL
same,MIC,[22]; Corynebacterium diphtheriae,1.56 µg/mL
same,MIC,"[23]; Pseudomonas aeruginosa, U31, read-out: Minimum inhibitory concentration",> 100 µg/mL
same,MIC,"[24]; Proteus mirabilis, IFO3849, read-out: Minimum inhibitory concentration",6.25 µg/mL
"CCN1CCN(C(=O)NC(C(=O)NC2CN(S(=O)(=O)O)C2=O)c2csc(N)n2)C(=O)C1=O (stereo not shown) [Compound D, Sodium 3-[2-(4-ethyl-2,3-dioxo-1-piperazinocarboxamido)-2-(2-amino-4-thiazolyl)-acetamido]-2-oxoazetidine-1-sulphonate]",MIC,[1]; [25],> 100 µg/mL
same,MIC,[2]; [26],3.13 µg/mL
same,MIC,[3]; [27],50 µg/mL
same,MIC,[4]; [28],25 µg/mL
same,MIC,[5]; [29],12.5 µg/mL
same,MIC,[5]; [30],12.5 µg/mL
same,MIC,[6]; [31],3.13 µg/mL
same,MIC,[7]; [32],> 100 µg/mL
same,MIC,[8]; [33],6.25 µg/mL
same,MIC,[9]; [34],0.1 µg/mL
same,MIC,[10]; [35],12.5 µg/mL
same,MIC,[11]; [36],6.25 µg/mL
same,MIC,[12]; [37],25 µg/mL
same,MIC,[13],0.1 µg/mL
same,MIC,[14]; [38],> 100 µg/mL
same,MIC,[15]; [39],0.2 µg/mL
same,MIC,[16]; [40],3.13 µg/mL
same,MIC,[17]; [41],0.78 µg/mL
same,MIC,[18]; [42],25 µg/mL
same,MIC,[19]; [43],1.56 µg/mL
same,MIC,[20],> 100 µg/mL
same,MIC,[21]; [44],0.39 µg/mL
same,MIC,[22]; [45],3.13 µg/mL
same,MIC,[23]; [46],> 100 µg/mL
same,MIC,[24]; [47],25 µg/mL
"CCN1CCN(C(=O)N[C@H](C(=O)NC2CN(S(=O)(=O)[O-])C2=O)c2cccs2)C(=O)C1=O.[Na+] (stereo partly drawn) [Compound F, Sodium 3-[D-2-(4-ethyl-2,3-dioxo-1-piperazinocarboxamido)-2-thienylacetamido]-2-oxoazetidine-1-sulphonate]",Minimum inhibitory concentration,[1]; [25],>100 µg/mL
same,Minimum inhibitory concentration,[2]; [26],3.13 µg/mL
same,Minimum inhibitory concentration,"[3]; Acinetobacter calcoaceticus IFO 13006, medium TSA",25 µg/mL
same,Minimum inhibitory concentration,"[4]; Enterobacter cloacae IFO 12937, medium TSA",50 µg/mL
same,Minimum inhibitory concentration,[5]; [29],6.25 µg/mL
same,Minimum inhibitory concentration,[5]; [30],6.25 µg/mL
same,Minimum inhibitory concentration,[6]; [31],3.13 µg/mL
same,Minimum inhibitory concentration,"[7]; Streptococcus faecium IFO 3128, medium B—TSA",>100 µg/mL
same,Minimum inhibitory concentration,[8]; [33],6.25 µg/mL
same,Minimum inhibitory concentration,"[9]; Proteus vulgaris IFO 3988, medium TSA",<0.1 µg/mL
same,Minimum inhibitory concentration,"[10]; Proteus morganii IFO 3168, medium TSA",12.5 µg/mL
same,Minimum inhibitory concentration,[11]; [36],6.25 µg/mL
same,Minimum inhibitory concentration,"[12]; Staphylococcus aureus 1840, medium TSA",25 µg/mL
same,Minimum inhibitory concentration,[13],0.2 µg/mL
same,Minimum inhibitory concentration,[14]; [38],>100 µg/mL
same,Minimum inhibitory concentration,[15]; [39],0.2 µg/mL
same,Minimum inhibitory concentration,"[16]; Pseudomonas aeruginosa IFO 3455, medium TSA",6.25 µg/mL
same,Minimum inhibitory concentration,"[17]; Serratia marcescens IFO 12648, medium TSA",1.56 µg/mL
same,Minimum inhibitory concentration,[18]; [42],25 µg/mL
same,Minimum inhibitory concentration,"[19]; Citrobacter freundii IFO 12681, medium TSA",1.56 µg/mL
same,Minimum inhibitory concentration,[20]; medium TSA,>100 µg/mL
same,Minimum inhibitory concentration,[21]; [44],0.78 µg/mL
same,Minimum inhibitory concentration,[22]; [45],0.78 µg/mL
same,Minimum inhibitory concentration,"[23]; Pseudomonas aeruginosa U 31, medium TSA",>100 µg/mL
same,Minimum inhibitory concentration,"[24]; Proteus mirabilis IFO 3849, medium TSA",0.78 µg/mL
